Experimental data reported in US6479437B1, “Herbicidal mixture containing a 3-heterocyclyl-substituted benzoyl derivative” (priority 1998, dated 2002).

Key:
Type in all cases: in vivo
Settings in all cases: adjuvant 0.25 and ENSOL 28 0.375 kg/ha where added, scale 0-100
ZEAMX (Zea mays, corn) = test: Selective herbicidal activity post-emergence in the greenhouse (crop phytotoxicity)
Description: (§1) The culture containers used were plastic pots containing loamy sand with approximately 3.0% of humus as substrate. The seeds of the test plants were sown separately for each species.
(§2) For the post-emergence treatment, the test plants were grown to a plant height of from 3 to 15 cm, depending on the plant habit, and only then treated with the herbicidal mixture which had been suspended or emulsified in water. To this end, the test plants were either sown directly and grown in the same containers, or they were first grown separately as seedlings and transplanted into the test containers a few days prior to treatment.
(§3) Depending on the species, the plants were kept at 10-25° C. or 20-35° C. The test period extended over 2 to 4 weeks. During this time, the plants were tended, and their response to the individual treatments was evaluated.
(§4) Evaluation was carried out using a scale of from 0 to 100. 100 means no emergence of the plants, or complete destruction of at least the aerial parts, and 0 means no damage or normal course of growth.

[1] = tested on: POLPE (Polygonum persicaria, lady's thumb); test: Selective herbicidal activity post-emergence in the greenhouse
Description: as §1, §2, §3, §4

[2] = tested on: ECHCG (Echinochloa crus-galli, barnyardgrass); test: as above
Description: as §1, §2, §3, §4

[3] = tested on: SETVI (Setaria viridis, green foxtail); test: as above
Description: as §1, §2, §3, §4

[4] = tested on: CHEAL (Chenopodium album, lambsquarters); test: as above
Description: as §1, §2, §3, §4

[5] = tested on: ABUTH (Abutilon theophrasti, velvetleaf); test: as above
Description: as §1, §2, §3, §4

[6] = Table 1, EX. 1 0.0078 kg/ha a.s.
[7] = Table 2, EX. 1 0.0625 kg/ha a.s.
[8] = Table 8, EX. 1 0.0625 kg/ha a.s.
[9] = Table 20, EX. 1 0.0078 kg/ha a.s.
[10] = Table 17, EX. 1 0.0078 kg/ha a.s.
[11] = Table 19, EX. 1 0.0078 kg/ha a.s.
[12] = Table 21, EX. 1 0.0078 kg/ha a.s.
[13] = Table 5, EX. 1 0.0312 kg/ha a.s.
[14] = Table 11, EX. 1 0.0078 kg/ha a.s.

Cn1ncc(C(=O)c2ccc(S(C)(=O)=O)c(C3=NOCC3)c2Cl)c1O [EX. 1]
Phytotoxicity ZEAMX (ZEAMX (Zea mays, corn); [6]): 0 | Phytotoxicity ZEAMX (ZEAMX (Zea mays, corn); [7]): 0 | Phytotoxicity ZEAMX (ZEAMX (Zea mays, corn); [8]): 0 | Phytotoxicity ZEAMX (ZEAMX (Zea mays, corn); [9]): 0 | Phytotoxicity POLPE [1, 10]: 20 | Phytotoxicity POLPE ([1]; Table 18, EX. 1 0.0078 kg/ha a.s.): 70 | Phytotoxicity POLPE [1, 11]: 70 | Phytotoxicity POLPE [1, 12]: 70 | Phytotoxicity ECHCG ([2]; Table 3, EX. 1 0.0625 kg/ha a.s.): 50 | Phytotoxicity ECHCG [2, 13]: 030 | Phytotoxicity ECHCG [2, 8]: 50 | Phytotoxicity ECHCG ([2]; Table 9, EX. 1 0.0625 kg/ha a.s.): 50 | Phytotoxicity ECHCG ([2]; Table 15, EX. 1 0.0625 kg/ha a.s.): 50 | Phytotoxicity SETVI [3, 14]: 30 | Phytotoxicity SETVI [3, 10]: 30 | Phytotoxicity SETVI [3, 11]: 40 | Phytotoxicity SETVI [3, 9]: 40 | Phytotoxicity SETVI [3, 12]: 40 | Phytotoxicity CHEAL [4, 6]: 20 | Phytotoxicity CHEAL [4, 7]: 50 | Phytotoxicity CHEAL ([4]; Table 6, EX. 1 0.0078 kg/ha a.s.): 20 | Phytotoxicity CHEAL ([4]; Table 7, EX. 1 0.0156 kg/ha a.s.): 20 | Phytotoxicity CHEAL ([4]; Table 10, EX. 1 0.0078 kg/ha a.s.): 20 | Phytotoxicity CHEAL [4, 14]: 20 | Phytotoxicity CHEAL ([4]; Table 12, EX. 1 0.0156 kg/ha a.s.): 20 | Phytotoxicity CHEAL ([4]; Table 13, EX. 1 0.0156 kg/ha a.s.): 20 | Phytotoxicity CHEAL ([4]; Table 14, EX. 1 0.0156 kg/ha a.s.): 20 | Phytotoxicity ABUTH ([5]; Table 4, EX. 1 0.0156 kg/ha a.s.): 20 | Phytotoxicity ABUTH [5, 13]: 75 | Phytotoxicity ABUTH ([5]; Table 16, EX. 1 0.0156 kg/ha a.s.): 20
